Reference: patent US20240238242A1, “EGCG buccal tablet and use thereof” (priority 2023, published 2024)
Read-outs that look alike come from different tables or passages of the source.

Legend:
[1] = rats, intragastric decaffeinated green tea (DGT) 200 mg/kg; cited from earlier work
[2] = tested on: Influenza A H1N1 virus (H1N1-PR8); type: cell-based; conditions: for average inactivation efficiency against virus: three experiments

Q: Which “bioavailability of EGCG” value [1] does the source give for `O=C(O[C@@H]1Cc2c(O)cc(O)cc2O[C@@H]1c1cc(O)c(O)c(O)c1)c1cc(O)c(O)c(O)c1` [EGCG, Epigallocatechin gallate] here?
A: The value was 0.1%.

Q: And the “CPE test, virus replication in cell wells (wells 1-10)” value (from here on “CPE test, virus replication”) ([2]; 0.2 mM EGCG + PR8 virus, 5 minutes, third experiment, dilution factor 10^1)?
A: Its value is “+”.

Q: What about the “CPE test, virus replication” value ([2]; 0.2 mM EGCG + PR8 virus, 5 minutes, third experiment, dilution factor 10^2) of the same compound?
A: The value was “+”.

Q: What about the “CPE test, virus replication” value ([2]; 0.2 mM EGCG + PR8 virus, 5 minutes, third experiment, dilution factor 10^3) of the same compound?
A: The value was “+”.

Q: What about the “CPE test, virus replication” value ([2]; 0.2 mM EGCG + PR8 virus, 5 minutes, third experiment, dilution factor 10^4) of the same compound?
A: Its value is “+”.

Q: And the “CPE test, virus replication” value ([2]; 0.2 mM EGCG + PR8 virus, 5 minutes, third experiment, dilution factor 10^5)?
A: Its value is “+”.

Q: And the “CPE test, virus replication” value ([2]; 0.2 mM EGCG + PR8 virus, 5 minutes, third experiment, dilution factor 10^6)?
A: Its value is “− and +”.

Q: And the “CPE test, virus replication” value ([2]; 0.2 mM EGCG + PR8 virus, 5 minutes, third experiment, dilution factor 10^7)?
A: The value was “−”.

Q: What about the “CPE test, virus replication” value ([2]; 0.2 mM EGCG + PR8 virus, 5 minutes, third experiment, dilution factor 10^8) of the same compound?
A: The value was “−”.

Q: And the “CPE test (virus replication in the cell wells)” value ([2]; 0.2 mM EGCG + PR8 virus, co-incubated 1 minute, third experiment, dilution factor 10^1, wells 1-10)?
A: Its value is “+”.

Q: What about the “CPE test (virus replication in the cell wells)” value ([2]; 0.2 mM EGCG + PR8 virus, co-incubated 1 minute, third experiment, dilution factor 10^2, wells 1-10) of the same compound?
A: Its value is “+”.

Q: What about the “CPE test (virus replication in the cell wells)” value ([2]; 0.2 mM EGCG + PR8 virus, co-incubated 1 minute, third experiment, dilution factor 10^3, wells 1-10) of the same compound?
A: Its value is “+”.

Q: And the “CPE test (virus replication in the cell wells)” value ([2]; 0.2 mM EGCG + PR8 virus, co-incubated 1 minute, third experiment, dilution factor 10^4, wells 1-10)?
A: Its value is “+”.

Q: And the “CPE test (virus replication in the cell wells)” value ([2]; 0.2 mM EGCG + PR8 virus, co-incubated 1 minute, third experiment, dilution factor 10^5, wells 1-10)?
A: Its value is “+”.

Q: What about the “CPE test (virus replication in the cell wells)” value ([2]; 0.2 mM EGCG + PR8 virus, co-incubated 1 minute, third experiment, dilution factor 10^6, wells 1-10) of the same compound?
A: The value was “+ and −”.

Q: And the “CPE test (virus replication in the cell wells)” value ([2]; 0.2 mM EGCG + PR8 virus, co-incubated 1 minute, third experiment, dilution factor 10^7, wells 1-10)?
A: Its value is “− and +”.

Q: And the “CPE test (virus replication in the cell wells)” value ([2]; 0.2 mM EGCG + PR8 virus, co-incubated 1 minute, third experiment, dilution factor 10^8, wells 1-10)?
A: Its value is “−”.

Q: And the “CPE test (virus replication in the cell wells)” value ([2]; 0.2 mM EGCG + virus, PR8, 1 minute, first experiment, dilution factor 10^1, wells 1-10)?
A: Its value is “+”.

Q: What about the “CPE test (virus replication in the cell wells)” value ([2]; 0.2 mM EGCG + virus, PR8, 1 minute, first experiment, dilution factor 10^2, wells 1-10) of the same compound?
A: Its value is “+”.

Q: And the “CPE test (virus replication in the cell wells)” value ([2]; 0.2 mM EGCG + virus, PR8, 1 minute, first experiment, dilution factor 10^3, wells 1-10)?
A: Its value is “+”.

Q: What about the “CPE test (virus replication in the cell wells)” value ([2]; 0.2 mM EGCG + virus, PR8, 1 minute, first experiment, dilution factor 10^4, wells 1-10) of the same compound?
A: The value was “+”.

Q: And the “CPE test (virus replication in the cell wells)” value ([2]; 0.2 mM EGCG + virus, PR8, 1 minute, first experiment, dilution factor 10^5, wells 1-10)?
A: Its value is “+”.

Q: What about the “CPE test (virus replication in the cell wells)” value ([2]; 0.2 mM EGCG + virus, PR8, 1 minute, first experiment, dilution factor 10^6, wells 1-10) of the same compound?
A: The value was “− and +”.

Q: What about the “CPE test (virus replication in the cell wells)” value ([2]; 0.2 mM EGCG + virus, PR8, 1 minute, first experiment, dilution factor 10^7, wells 1-10) of the same compound?
A: Its value is “− and +”.

Q: And the “CPE test (virus replication in the cell wells)” value ([2]; 0.2 mM EGCG + virus, PR8, 1 minute, first experiment, dilution factor 10^8, wells 1-10)?
A: The value was “−”.

Q: And the “CPE test (virus replication in the cell wells)” value ([2]; 0.2 mM EGCG + virus, PR8, 1 minute, second experiment, dilution factor 10^1, wells 1-10)?
A: Its value is “+”.

Q: And the “CPE test (virus replication in the cell wells)” value ([2]; 0.2 mM EGCG + virus, PR8, 1 minute, second experiment, dilution factor 10^2, wells 1-10)?
A: The value was “+”.

Q: What about the “CPE test (virus replication in the cell wells)” value ([2]; 0.2 mM EGCG + virus, PR8, 1 minute, second experiment, dilution factor 10^3, wells 1-10) of the same compound?
A: Its value is “+”.

Q: And the “CPE test (virus replication in the cell wells)” value ([2]; 0.2 mM EGCG + virus, PR8, 1 minute, second experiment, dilution factor 10^4, wells 1-10)?
A: Its value is “+”.

Q: What about the “CPE test (virus replication in the cell wells)” value ([2]; 0.2 mM EGCG + virus, PR8, 1 minute, second experiment, dilution factor 10^5, wells 1-10) of the same compound?
A: Its value is “+”.

Q: What about the “CPE test (virus replication in the cell wells)” value ([2]; 0.2 mM EGCG + virus, PR8, 1 minute, second experiment, dilution factor 10^6, wells 1-10) of the same compound?
A: The value was “+ and −”.

Q: What about the “CPE test (virus replication in the cell wells)” value ([2]; 0.2 mM EGCG + virus, PR8, 1 minute, second experiment, dilution factor 10^7, wells 1-10) of the same compound?
A: Its value is “−”.

Q: What about the “CPE test (virus replication in the cell wells)” value ([2]; 0.2 mM EGCG + virus, PR8, 1 minute, second experiment, dilution factor 10^8, wells 1-10) of the same compound?
A: The value was “−”.

Q: What about the “average inactivation efficiency against virus” value ([2]; 0.2 mM EGCG, PR8 virus, 1 minute) of the same compound?
A: The value was 49.88%.

Q: What about the “inactivation efficiency against the virus” value ([2]; 0.2 mM EGCG, PR8 virus, 5 minutes, single experiment) of the same compound?
A: The value was 84.15%.

Q: And the “average inactivation efficiency against virus” value ([2]; 0.2 mM EGCG, PR8 virus, 5 minutes)?
A: Its value is 70.91%.

Q: What about the “CPE test, virus replication” value ([2]; 1 mM EGCG + PR8 virus, 5 minutes, third experiment, dilution factor 10^3) of the same compound?
A: The value was “+”.

Q: And the “CPE test, virus replication” value ([2]; 1 mM EGCG + PR8 virus, 5 minutes, third experiment, dilution factor 10^4)?
A: Its value is “+”.

Q: And the “CPE test, virus replication” value ([2]; 1 mM EGCG + PR8 virus, 5 minutes, third experiment, dilution factor 10^5)?
A: Its value is “+”.

Q: And the “CPE test, virus replication” value ([2]; 1 mM EGCG + PR8 virus, 5 minutes, third experiment, dilution factor 10^6)?
A: The value was “− and +”.

Q: And the “CPE test, virus replication” value ([2]; 1 mM EGCG + PR8 virus, 5 minutes, third experiment, dilution factor 10^7)?
A: Its value is “−”.

Q: And the “CPE test, virus replication” value ([2]; 1 mM EGCG + PR8 virus, 5 minutes, third experiment, dilution factor 10^8)?
A: Its value is “−”.

Q: What about the “CPE test (virus replication in the cell wells)” value ([2]; 1 mM EGCG + PR8 virus, co-incubated 1 minute, third experiment, dilution factor 10^3, wells 1-10) of the same compound?
A: The value was “+”.

Q: What about the “CPE test (virus replication in the cell wells)” value ([2]; 1 mM EGCG + PR8 virus, co-incubated 1 minute, third experiment, dilution factor 10^4, wells 1-10) of the same compound?
A: Its value is “+”.

Q: What about the “CPE test (virus replication in the cell wells)” value ([2]; 1 mM EGCG + PR8 virus, co-incubated 1 minute, third experiment, dilution factor 10^5, wells 1-10) of the same compound?
A: The value was “+ and −”.

Q: What about the “CPE test (virus replication in the cell wells)” value ([2]; 1 mM EGCG + PR8 virus, co-incubated 1 minute, third experiment, dilution factor 10^6, wells 1-10) of the same compound?
A: Its value is “− and +”.

Q: And the “CPE test (virus replication in the cell wells)” value ([2]; 1 mM EGCG + PR8 virus, co-incubated 1 minute, third experiment, dilution factor 10^7, wells 1-10)?
A: Its value is “−”.

Q: What about the “CPE test (virus replication in the cell wells)” value ([2]; 1 mM EGCG + PR8 virus, co-incubated 1 minute, third experiment, dilution factor 10^8, wells 1-10) of the same compound?
A: Its value is “−”.

Q: And the “CPE test (virus replication in the cell wells)” value ([2]; 1 mM EGCG + PR8 virus, co-incubated 5 minutes, first experiment, dilution factor 10^3, wells 1-10)?
A: The value was “+”.
